Measurements published in ChEMBL document CHEMBL1140192, “Sorocenols G and H, anti-MRSA oxygen heterocyclic Diels-Alder-type adducts from Sorocea muriculata roots” (J Nat Prod, 2008).
Converted amounts (≈) assume the structure as drawn. The source made the active and inactive calls. No cut-off for these calls is given here.

Columns and labels:
Format in all cases: functional, organism-based
Escherichia coli = experiment: Antibacterial activity against Escherichia coli ATCC 35218 at 20 ug/mL after 18 to 24 hrs
Cryptococcus neoformans = experiment: Antifungal activity against Cryptococcus neoformans ATCC 90113 after 68 to 72 hrs
Candida albicans = experiment: Antifungal activity against Candida albicans ATCC 90028 after 18 to 24 hrs
[1] = system: Mycobacterium intracellulare; experiment: Antibacterial activity against Mycobacterium intracellular ATCC 23068 at 20 ug/mL after 68 to 72 hrs
Pseudomonas aeruginosa = experiment: Antibacterial activity against Pseudomonas aeruginosa ATCC 27853 at 20 ug/mL after 18 to 24 hrs
Aspergillus fumigatus = experiment: Antifungal activity against Aspergillus fumigatus ATCC 90906 after 68 to 72 hrs
Staphylococcus aureus = experiment: Antibacterial activity against methicillin-resistant Staphylococcus aureus ATCC 43300 after 18 to 24 hrs

Row | SMILES | Activity (Escherichia coli) | Activity (Cryptococcus neoformans) | Activity (Candida albicans) | Activity [1] | Activity (Pseudomonas aeruginosa) | Activity (Aspergillus fumigatus) | IC50 (Staphylococcus aureus) | MBC (Staphylococcus aureus) | MIC (Staphylococcus aureus) | Activity (Staphylococcus aureus) | IC50 (Cryptococcus neoformans) | MFC (Cryptococcus neoformans) | MIC (Cryptococcus neoformans) | IC50 (Candida albicans) | MFC (Candida albicans) | MIC (Candida albicans) | IC50 (Aspergillus fumigatus) | MFC (Aspergillus fumigatus) | MIC (Aspergillus fumigatus)
1 | CC1=C[C@@H]2c3c(O)cc(-c4cc5ccc(O)cc5o4)cc3O[C@]3(c4ccc(O)c5c4OC(C)(C)C=C5)Oc4cc(O)ccc4[C@H](C1)[C@@H]23 [SOROCENOL G] | inactive | Active | Active | inactive | inactive | inactive | 1500 nM | 31.8 µM (≈ 20 µg/mL) | 4 µM (≈ 2.51 µg/mL) | – | – | – | – | – | – | – | – | – | –
2 | O=C(O)c1cn(C2CC2)c2cc(N3CCNCC3)c(F)cc2c1=O [CIPROFLOXACIN] | – | – | – | – | – | – | – | – | 0.8 µM (≈ 0.265 µg/mL) | inactive | – | – | – | – | – | – | – | – | –
3 | C[C@@H]1[C@H](O)[C@@H](C)/C=C/C=C/C=C/C=C/C=C/C=C/C=C/[C@H](O[C@@H]2O[C@H](C)[C@@H](O)[C@H](N)[C@@H]2O)C[C@@H]2O[C@](O)(C[C@@H](O)C[C@@H](O)[C@H](O)CC[C@@H](O)C[C@@H](O)CC(=O)O[C@H]1C)C[C@H](O)[C@H]2C(=O)O [AMPHOTERICIN B] | – | – | – | – | – | – | – | – | – | – | 900 nM | 2.5 µM (≈ 2.31 µg/mL) | 1.4 µM (≈ 1.29 µg/mL) | 300 nM | 1.4 µM (≈ 1.29 µg/mL) | 0.7 µM (≈ 0.647 µg/mL) | 1600 nM | 2.7 µM (≈ 2.5 µg/mL) | 2.7 µM (≈ 2.5 µg/mL)
4 | CC(C)=CCc1c(O)ccc(C(=O)[C@H]2[C@H](c3c(O)cc(-c4cc5ccc(O)cc5o4)cc3O)C=C(C)C[C@H]2c2ccc(O)cc2O)c1O [SOROCENOL H] | inactive | – | – | inactive | inactive | – | 500 nM | 30.8 µM (≈ 20 µg/mL) | 1.9 µM (≈ 1.23 µg/mL) | – | 5400 nM | 7.7 µM (≈ 5 µg/mL) | 7.7 µM (≈ 5 µg/mL) | 5400 nM | 30.8 µM (≈ 20 µg/mL) | 15.4 µM (≈ 9.99 µg/mL) | 10000 nM | 30.8 µM (≈ 20 µg/mL) | 15.4 µM (≈ 9.99 µg/mL)
